US12312379B2, “Methods for producing cyclic compounds comprising N-substituted amino acid residues” (Chugai Seiyaku Kabushiki Kaisha, priority 2021, dated 2025)
Converted amounts (≈) assume the structure as drawn. Where two headings read alike, the source gives them in different places.

Experiments:
[1] = water/octanol; literature or database values; cited from earlier work
[2] = cited from earlier work
[3] = Merck Index 14th Edition; Org. Process Res. Dev. 2007 for 2-MeTHF; cited from earlier work
Amount of acetone by GC = format: physicochemical; conditions: wet crystals
Method: The conditions for analyzing the amount of acetone by GC are shown below. • Instrument: GC-2010 (manufactured by SHIMADZU CORPORATION) • Column: DB-624 (Agilent), 0.530 mm ID×30 m, 3.00 μm • Column temperature: 50° C. (5 min)→10° C./min→90° C. (0 min)→50° C./min→240° C. (5 min) • Injector temperature: 230° C. • Detector temperature: 250° C. • Split ratio: 20/1 • Flow rate: 30 cm/sec

[4] = Water content by Karl Fischer titration (CA-200); format: physicochemical; conditions: wet crystals
Description: The conditions for analyzing the water content by Karl Fischer titration method are shown below. • Instrument: CA-200 (manufactured by Nittoseiko Analytech Co., Ltd.) • Anolyte: Aquamicron AKX • Catholyte: Aquamicron CXU

[5] = Dynamic water vapor adsorption (DVS Intrinsic); format: physicochemical; conditions: 25° C., relative humidity range of 0% to 95%, relative to the weight when the relative humidity is 0%
Method: The dynamic water vapor adsorption properties of the hydrate crystals (Form C) of Compound 1 prepared in Example 26 were measured by the following method. The results are shown in FIG. 10. • Measurement apparatus: DVS Intrinsic (manufactured by Surface Measurement Systems) • Temperature: 25° C. • Relative humidity (%) measurement points: • Cycle 1: 0, 10, 20, 30, 40, 50, 60, 70, 80, 90, 95, 90, 80, 70, 60, 50, 40, 30, 20, 10, 0(%); • Cycle 2: 10, 20, 30, 40, 50, 60, 70, 80, 90, 95, 90, 80, 70, 60, 50, 40, 30, 20, 10, 0(%) • Threshold: 0.001 dm/dt (%/min) • Minimum adsorption time: 10 min • Maximum adsorption time: 1440 min

[6] = Water content by Karl Fischer titration (CA-310); format: physicochemical; conditions: after acclimatization of the sample to laboratory environment
Method: The water content of the hydrate crystals (Form C) of Compound 1 prepared in Example 26 was measured by Karl Fischer titration method. After acclimatization of the sample to laboratory environment, the measurement was carried out using CA-310 (manufactured by Nittoseiko Analytech).

[7] = Powder X-ray diffraction at different humidities; format: physicochemical; conditions: 35.0 °C, relative humidity of 75% to 0%, versus Form C obtained in Example 25
Method: Powder X-ray diffraction of the hydrate crystals (Form C) of Compound 1 prepared in Example 26 was measured at different humidities by the following method. Measurement apparatus: SmartLab System, D/Tex Ultra detector, humidity generator HUM-SL (manufactured by Rigaku Corporation) • Anticathode: Cu • Tube voltage: 45 kV • Tube current: 200 mA • Scanning range: 5-30° • Scanning speed: 0.7°/min • Sampling width: 0.02° • Varying humidity conditions: […]

[8] = Org. Process Res. Dev. 2007 / J. Mol. Catal. A Chem. 2010

| Molecule | log Kow values or predicted log Kow values [1] | miscibility / solubility in water (in words) [3] | amount that dissolves in 1 L of water ([2]; Merck Index 14th Edition) [g] | further results |
| --- | --- | --- | --- | --- |
| CC1CCCO1 (stereo not drawn) [Compound 2-MeTHF, 2-methyltetrahydrofuran] | 1.35 | not miscible with water | – | amount that dissolves in 1 L of water [2, 8]: 140 g; water solubility ([2]; room temperature (e.g. 25° C.)): 150 mg/mL (≈ 1740 mM) |
| C[S+](C)[O-] [DMSO, dimethyl sulfoxide] | −0.31 | soluble in water | – | water solubility ([2]; ChemIDplus Advanced (NIH)): 1000 mg/mL (≈ 12800 mM) |
| CC#N [acetonitrile] | −0.34 | miscible with water | – | – |
| COc1ccccc1 [anisole] | 2.11 | – | – | – |
| COC(=O)OC [dimethyl carbonate] | 0.23 | – | 139 | amount that dissolves in 1 L of water [2, 8]: 139 g |
| CCOC(C)=O [ethyl acetate] | 0.73 | – | 100 | – |
| CCCCCCC [heptane] | 4.66 | insoluble in water | – | – |
| CC(=O)OC(C)C [isopropyl acetate] | 1.02 | – | 43 | – |
| (5S,8S,11S,15S,18S,23aS,29S,35S,37aS)-8-((S)-sec-butyl)-18-cyclopentyl-29-(3,5-difluoro-4-(trifluoromethyl)phenethyl)-36-ethyl-11-isobutyl-N,N,5,6,12,16,19,33-octamethyl-35-(4-methylbenzyl)-4,7,10,13,17,20,23,28,31,34,37-undecaoxotetratriacontahydro-2H,4H-spiro[azeto[2,1-u]pyrrolo[2,1-i][1,4,7,10,13,16,19,22,25,28,31]undecaazacyclotetratriacontin-21,1′-cyclopentane]-15-carboxamide | – | – | – | acetone content (Amount of acetone by GC): 3.7%; water content [4]: 17.5% |
| (5S,8S,11S,15S,18S,23aS,29S,35S,37aS)-8-((S)-sec-butyl)-18-cyclopentyl-29-(3,5-difluoro-4-(trifluoromethyl)phenethyl)-36-ethyl-11-isobutyl-N,N,5,6,12,16,19,33-octamethyl-35-(4-methylbenzyl)-4,7,10,13,17,20,23,28,31,34,37-undecaoxotetratriacontahydro-2H,4H-spiro[azeto[2,1-u]pyrrolo[2,1-i][1,4,7,10,13,16,19,22,25,28,31]undecaazacyclotetratriacontin-21,1′-cyclopentane]-15-carboxamide [hydrate crystals (Form C) of Compound 1] | – | – | – | weight change as the hydration number changes [5]: ≤ 3.3 % weight; water content [6]: 6.50 wt %; shift in 2θ values [7]: ≤ 0.2 ° |
